# Experimental data: patent US9481637B2, “Compounds for the treatment of seizures and other central nervous systems disorders and conditions” (Ketogen Inc., priority 2014, dated 2016)
# How the values were obtained:
# Type in all cases: in vivo
# [1] = tested on: 6 Hz-induced psychomotor seizures in CD-1 mice; test: 6 Hz psychomotor seizure test; details: for mice protected from psychomotor seizure / incidence of psychomotor seizures: 1 h pretreatment; for incidence of psychomotor seizures: vs Vehicle
# From the text: Male, experimentally naive CD-1 mice were used in these experiments. At a defined time following drug or vehicle pretreatment, all mice received an electrical stimulus (6 Hz, 0.2 ms pulse width, 3 s duration, 32 mA) via corneal electrodes moistened with saline (ECT unit 57800; Ugo Basile). Preliminary experiments established that these stimulus parameters elicited a psychomotor seizure, defined as the expression of at least one of the following behaviors: stun/immobility, forelimb clonus, straub tail, lateral head movement, in >95% of control animals. Protection was defined as complete absence of all the above behaviors within 20 s of stimulus delivery. The effective dose of compound necessary to protect against psychomotor seizures to 50% of controls (i.e. ED50) was determined by curve fitting program.
# (§1) Male mice (body wt. 20-40 g) were used for all studies. Mice were used in one of the following 4 seizure tests: maximal electroshock seizure (MES) test, subcutaneous injection of pentylenetetrazol (scPTZ) test, seizures induced by 6 Hz stimulation (6 Hz), and corneal kindled seizures. These tests were selected because no single test detects all known anti-epileptic drugs (AED's), but all currently known AED's are detected as active (i.e. prevent seizures) in at least one of these tests. Subjects were tested in one of the 4 seizure tests following a defined time after treatment with either test drug or vehicle control. Following administration of test drug or vehicle by either the oral, subcutaneous or intraperitoneal route, the animals were tested according to one of the methods outlined below (1-4). Typically the pretreatment time was 60 minutes although in some cases this varied from 30 min to 4 h.
# 3. 6 Hz Psychomotor Seizure Test:
# Male CD-1 mice received an electrical stimulus (6 Hz, 0.2 ms pulse width, 3 s duration, 32 mA) via corneal electrodes moistened with saline (ECT unit 57800; Ugo Basile). These stimulus parameters should elicit a psychomotor seizure, defined as the expression of at least one of the following behaviours: stun/immobility, forelimb clonus, straub tail, vibrissae tremor, lateral head movement, in >95% of control animals within 30 s of stimulus delivery. To establish drug efficacy, test drug or vehicle was administered at a defined timepoint prior to the 6 Hz test, to separate experimental groups. The effect of treatment on subsequent seizure was noted. Protection is defined as complete absence of all the above behaviours within 20 s of stimulus delivery. The experiment was terminated immediately once the endpoint was met.
# [2] = tested on: MES-induced tonic seizures in CD-1 mice; test: Maximal electroshock test (MES test)
# From the text: as §1
# 1. Maximal Electroshock Test (MES Test):
# Male CD-1 mice received a maximal electroshock (45 mA, 0.2 s duration, 60 Hz) via corneal electrodes moistened with saline (shock stimulator type 221; Harvard apparatus). This stimulus intensity should elicit a full tonic seizure in >95% of control animals. Protection is defined as absence of a full tonic seizure within 15 s of stimulus delivery. To establish drug efficacy, test drug or vehicle was administered at a defined timepoint prior to the MES test, to separate experimental groups. The experiment was terminated immediately once the endpoint was met.
# [3] = tested on: scPTZ-induced seizures in CD-1 mice; test: s.c. pentylenetetrazol seizure test (scPTZ test)
# From the text: as §1
# 2. s.c. Pentylenetetrazol Seizure Test (PTZ Test):
# Male CD-1 mice received a single subcutaneous injection of pentylenetetrazol (PTZ: 85 mg/kg). This dose of PTZ should elicit a clonic seizure in >95% of control animals. Following PTZ injection, the animals were immediately transferred to single observation cages and observed continuously for 30 min. To establish drug efficacy, test drug or vehicle was administered at a defined timepoint prior to the PTZ administration, to separate experimental groups. The effect of treatment on subsequent seizure was noted. Protection is defined as complete absence of a clonic seizure, including a forelimb clonus, over the 30 min observation period. In the event of a seizure, the onset latency from PTZ injection was recorded. The experiment was terminated immediately once the endpoint was met, or in the case of protection, at the completion of the 30 min test period.
# [4] = tested on: corneal kindled seizures in CD-1 mice; test: Mouse corneal kindling; details: 75 and 300 mg/kg; IP and oral routes
# From the text: as §1
# 4. Mouse Corneal Kindling:
# Male CD-1 mice (body wt. 20-40 g) were used for these studies. There are 3 phases to the procedure: (1) kindling development phase, (2) kindling stability/persistence phase, and (3) drug testing phase.
# 1. […]
# Drug testing was conducted using a repeated measures design with mice receiving up to 4 doses of a test drug and control treatments in a counterbalanced sequence. […] For each stimulation, the kindling score was assessed according to the Racine (1972) rating scale. […]
# [5] = 75-600 mg/kg IP and oral routes
# [6] = 37.5-600 mg/kg IP and oral routes
# [7] = 150, 300 and 600 mg/kg IP and 600 mg/kg oral
compound,measurement,setting,value
"CCCCCCCCC(=O)NCC1(CC(=O)O)CCCCC1 [compound 4, 2-(1-(nonanamidomethyl)cyclohexyl)acetic acid]",mice protected from psychomotor seizure,[1]; 600 mg/kg IP,all mice
same,mice protected from psychomotor seizure,[1]; 600 mg/kg oral,No mice
same,incidence of psychomotor seizures,[1]; 150-600 mg/kg IP,dose-related decrease in the incidence of seizures
"CCCCCCCCCC(=O)NC[C@H](CC(=O)O)CC(C)C [compound 14, (S)-3-(decanamidomethyl)-5-methylhexanoic acid]",incidence of psychomotor seizures,[1]; [5],dose-related decrease in the incidence of seizures
same,mice protected from psychomotor seizure,[1]; 300-600 mg/kg IP,all mice
"CCCCCCCC(=O)NC(=O)[C@H](CC)N1CCCC1=O [compound 20, (S)—N-(2-(2-oxopyrrolidin-1-yl)butanoyl)octanamide]",6 Hz-induced seizures vs vehicle control (FIG. 8),"[1]; 75, 150, 300 or 600 mg/kg 1 hr pre-stimulation, 300 mg/kg at 2 and 4 hr, oral or IP",reduced seizures
same,6 Hz EC50 (mg/kg),[1]; Dose route IP,90 mg/kg
same,6 Hz EC50 (mmol/kg),[1]; Dose route IP,0.3 mmol/kg
same,6 Hz EC50 (mg/kg),[1]; Dose route PO,130 mg/kg
same,6 Hz EC50 (mmol/kg),[1]; Dose route PO,0.44 mmol/kg
same,MES-induced tonic seizures vs vehicle control (FIG. 7),[2]; 600 mg/kg IP,reduced seizures
same,MES EC50 (mg/kg),[2]; Dose route IP,>600 mg/kg
same,MES EC50 (mmol/kg),[2]; Dose route IP,>2.02 mmol/kg
same,MES EC50 (mg/kg),[2]; Dose route PO,>600 mg/kg
same,MES EC50 (mmol/kg),[2]; Dose route PO,>2.02 mmol/kg
same,scPTZ-induced seizures vs vehicle control (FIG. 9),[3]; 300 and 600 mg/kg IP,reduced seizures
same,ScPTZ EC50 (mg/kg),[3]; Dose route IP,>600 mg/kg
same,ScPTZ EC50 (mmol/kg),[3]; Dose route IP,>2.02 mmol/kg
same,ScPTZ EC50 (mg/kg),[3]; Dose route PO,>600 mg/kg
same,ScPTZ EC50 (mmol/kg),[3]; Dose route PO,>2.02 mmol/kg
same,corneal kindled seizures (Racine kindling score) vs vehicle control (FIG. 10),[4],reduced seizures
"CCCCCCCCC(=O)NC(=O)[C@H](CC)N1CCCC1=O [compound 21, (S)—N-(2-(2-oxopyrrolidin-1-yl)butanoyl)nonanamide]",incidence of psychomotor seizures,[1]; [5],dose-related decrease in the incidence of seizures
same,mice protected from psychomotor seizure,[1]; 300-600 mg/kg IP,all mice
"CCCCCCCCCC(=O)NC(=O)[C@H](CC)N1CCCC1=O [compound 22, (S)—N-(2-(2-oxopyrrolidin-1-yl)butanoyl)decanamide]",mice protected from psychomotor seizure,[1]; 600 mg/kg IP,all mice
same,incidence of psychomotor seizures,[1]; [5],dose-related decrease in the incidence of seizures
"CCCCC(CC)CCC(=O)NC(=O)[C@H](CC)N1CCCC1=O (stereo partly drawn) [compound 25, 4-ethyl-N—((S)-2-(2-oxopyrrolidin-1-yl)butanoyl)octanamide]",incidence of psychomotor seizures,[1]; [6],dose-related decrease in the incidence of seizures
same,mice protected from psychomotor seizure,[1]; 300-600 mg/kg IP,all mice
same,6 Hz EC50 (mg/kg),[1]; Dose route IP,46 mg/kg
same,6 Hz EC50 (mmol/kg),[1]; Dose route IP,0.14 mmol/kg
same,6 Hz EC50 (mg/kg),[1]; Dose route PO,50 mg/kg
same,6 Hz EC50 (mmol/kg),[1]; Dose route PO,0.15 mmol/kg
same,MES-induced tonic seizures vs vehicle control (FIG. 11),[2]; [7],reduced seizures
same,MES EC50 (mg/kg),[2]; Dose route IP,397 mg/kg
same,MES EC50 (mmol/kg),[2]; Dose route IP,1.22 mmol/kg
same,MES EC50 (mg/kg),[2]; Dose route PO,>600 mg/kg
same,MES EC50 (mmol/kg),[2]; Dose route PO,>1.85 mmol/kg
same,"scPTZ-induced seizures (incidence, onset latency) vs vehicle control (FIGS. 12-13)",[3]; [7],reduced seizures
same,ScPTZ EC50 (mg/kg),[3]; Dose route IP,310 mg/kg
same,ScPTZ EC50 (mmol/kg),[3]; Dose route IP,0.95 mmol/kg
same,ScPTZ EC50 (mg/kg),[3]; Dose route PO,600 mg/kg
same,ScPTZ EC50 (mmol/kg),[3]; Dose route PO,1.85 mmol/kg
"CCCCC1CCC(C(=O)NC(=O)[C@H](CC)N2CCCC2=O)CC1 (stereo partly drawn) [compound 26, (S)-4-butyl-N-(2-(2-oxopyrrolidin-1-yl)butanoyl)cyclohexane-1-carboxamide]",incidence of psychomotor seizures,[1]; [6],dose-related decrease in the incidence of seizures
same,mice protected from psychomotor seizure,[1]; 300-600 mg/kg IP,all mice
same,6 Hz EC50 (mg/kg),[1]; Dose route IP,80 mg/kg
same,6 Hz EC50 (mmol/kg),[1]; Dose route IP,0.24 mmol/kg
same,6 Hz EC50 (mg/kg),[1]; Dose route PO,88 mg/kg
same,6 Hz EC50 (mmol/kg),[1]; Dose route PO,0.26 mmol/kg
same,MES-induced tonic seizures vs vehicle control (FIG. 14),[2]; 300 and 600 mg/kg IP and 600 mg/kg oral,reduced seizures
same,MES EC50 (mg/kg),[2]; Dose route IP,>600 mg/kg
same,MES EC50 (mmol/kg),[2]; Dose route IP,>1.78 mmol/kg
same,MES EC50 (mg/kg),[2]; Dose route PO,>600 mg/kg
same,MES EC50 (mmol/kg),[2]; Dose route PO,>1.78 mmol/kg
same,"scPTZ-induced seizures (incidence, onset latency) vs vehicle control (FIGS. 15-16)",[3]; [7],reduced seizures
same,ScPTZ EC50 (mg/kg),[3]; Dose route IP,230 mg/kg
same,ScPTZ EC50 (mmol/kg),[3]; Dose route IP,0.68 mmol/kg
same,ScPTZ EC50 (mg/kg),[3]; Dose route PO,300 mg/kg
same,ScPTZ EC50 (mmol/kg),[3]; Dose route PO,0.89 mmol/kg
